Series [1] is described as follows: Storage stability of aqueous solutions of Brivaracetam. Format: physicochemical. As to conditions: aqueous solution. An excerpt:
Also degradation products in solution are formed due to oxidation, pH ranges.

The conditions of series [2]: cited from earlier work.

In patent US20210393588A1, “READY TO USE I[…] OF BR[…] SALT THEREOF” (Zenvision Pharma LLP, priority 2018, published 2021) one finds Stability during storage and Solubility data, which are given here for one compound.

Molecules are shown by their SMILES. Where two headings read alike, the source gives them in different places.

Turning to `CCC[C@@H]1CC(=O)N([C@@H](CC)C(N)=O)C1` [Brivaracetam, (2S)-2-[(4R)-2-oxo-4-propyltetrahydro-1H-pyrrol-1-yl]butanamide], the Stability during storage entry in series [1] is on record as “partially unstable”. For the same compound, the Solubility entry was “freely soluble” in series [2] (acetone); “freely soluble” in series [2] (acetonitrile); “very soluble” in series [2] (buffer (pH 1.2, 4.5, and 7.4)); “very soluble” in series [2] (ethanol); “very soluble” in series [2] (glacial acetic acid); “very soluble” in series [2] (methanol). Also, the Solubility result in series [2] (n-hexane) is recorded as “very slightly soluble”; in series [2] (toluene), “soluble”; in series [2] (water) it was “very soluble”.
